# Patent US10202390B2, “Heteroaryl substituted aminopyridine compounds” (BRISTOL-MYERS SQUIBB COMPANY, priority 2015, dated 2019)
# Key:
# IRAK4 = IRAK4 (Homo sapiens (Human), UniProt Q9NWZ3); assay: IRAK4 Inhibition Assay; format: biochemical; conditions: ATP 500 μM; IRAK4 0.6 nM; 60 min room temperature
# Protocol: The assays were performed in U-bottom 384-well plates. The final assay volume was 30 μL prepared from 15 μL additions of enzyme and substrates (fluoresceinated peptide and ATP) and test compounds in assay buffer (20 mM HEPES pH 7.2, 10 mM MgCl2, 0.015% Brij 35 and 4 mM DTT). The reaction was initiated by the combination of IRAK4 with substrates and test compounds. The reaction mixture was incubated at room temperature for 60 min. and terminated by adding 45 μL of 35 mM EDTA to each sample. The reaction mixture was analyzed on the Caliper LABCHIP® 3000 (Caliper, Hopkinton, Mass.) by electrophoretic separation of the fluorescent substrate and phosphorylated product. Inhibition data were calculated by comparison to no enzyme control reactions for 100% inhibition and vehicle-only reactions for 0% inhibition. The final concentrations of reagents in the assays are ATP, 500 μM; FL-IPTSPITTTYFFFKKK peptide 1.5 μM; IRAK4, 0.6 nM; and DMSO, 1.6%.
# Human whole blood = assay: IRAK4 Whole Blood Assay (TLR2 agonist lipoteichoic acid induced IL-6); format: cell-based; conditions: 10 μg/mL lipoteichoic acid (TLR2 agonist), 5 hours, IL-6 levels
# Protocol: Human whole blood containing the anti-coagulant ACD-A was plated in 384-well plate (25 μL/well) and incubated with compounds for 60 minutes at 37° C. in a 5% CO2 incubator. The blood was stimulated with a TLR2 agonist, 10 μg/mL final concentration of lipoteichoic acid (Invivogen, San Diego, Calif.) in 25 μL RPMI (Gibco) for 5 hours in a 5% CO2 incubator. At the end of the incubation, plates were centrifuged at 2300 rpm for 5 minutes. Supernatants were harvested and analyzed for IL-6 levels by Flow Cytometry beads assay (BD Biosciences, San Jose, Calif.).
# [1] = Caco-2 Permeability Assay; format: in vitro ADME; conditions: human, test compound 3 μM, 2 hours at 37° C., direction not given
# Protocol: Caco-2 Permeability Assay Protocol
# Thirteen to 27 days prior to assay, Caco-2 cells were seeded onto collagen-coated polycarbonate filter membranes in 24-well transwell plates at a density of 1.45×10^5 cells/cm^2, approximately 4.8×10^4 cells per well. The cells were grown in a culture medium consisting of DMEM supplemented with 10% fetal bovine serum, 10 mM HEPES, 1% nonessential amino acids, 2 mM L-glutamine, 100 U/mL penicillin-G, and 100 μg/mL streptomycin. The culture medium was replaced every 3 days and the cells were maintained at 37° C. in a 95% relative humidity and 5% CO2 atmosphere. The cells were evaluated for tight junction formation just prior to assay. The test compound was solubilized to 10 mM in 100% DMSO and diluted to 3 μM in assay buffer. Permeability studies were initiated by adding 200 μL assay buffer plus/minus compound to the apical transwell compartment and 600 μL assay buffer plus/minus compound to the basolateral compartment of the 24-well transwell low-binding cluster plate. For apical-to-basolateral (A to B) permeability (absorptive direction), buffer containing compound was placed in the apical compartment (donorwells), while buffer alone was placed in the corresponding basolateral compartments (receiverwells). For basolateral-to-apical (B to A) permeability (secretive direction), buffer containing compound was placed in the basolateral compartment (donor wells), while buffer alone was placed in the corresponding apical compartments (receiver wells). Transwells were then incubated for 2 hours at 37° C. in a 95% relative humidity and 5% CO2 atmosphere with gentle agitation. Following incubation, 100 μL was removed from each apical and basolateral compartment and transferred to 96-well low binding plates that had been previously loaded with 100 μL/well of acetonitrile containing 250 nM propranolol, 250 nM diclofenac, and 500 nM tolbutamide as internal standards. The samples were subsequently analyzed by LC-MS/MS to determine concentrations of compound.
# Sequence of IRAK4 (Q9NWZ3 whole entry): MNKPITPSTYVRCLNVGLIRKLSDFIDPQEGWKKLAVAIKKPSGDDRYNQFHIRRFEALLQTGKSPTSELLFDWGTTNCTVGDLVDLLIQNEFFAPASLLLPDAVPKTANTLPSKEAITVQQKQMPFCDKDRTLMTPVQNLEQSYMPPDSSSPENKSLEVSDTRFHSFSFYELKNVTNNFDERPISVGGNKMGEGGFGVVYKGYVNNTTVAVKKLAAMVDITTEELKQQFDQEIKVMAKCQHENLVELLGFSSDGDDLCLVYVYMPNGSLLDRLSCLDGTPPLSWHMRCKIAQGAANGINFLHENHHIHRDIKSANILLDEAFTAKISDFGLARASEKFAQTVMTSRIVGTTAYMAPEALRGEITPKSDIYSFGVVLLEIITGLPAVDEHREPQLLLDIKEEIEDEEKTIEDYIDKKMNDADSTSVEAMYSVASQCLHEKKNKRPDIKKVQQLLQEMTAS
IC50 (IRAK4) [µM],EC50 (Human whole blood) [µM],"Papp at 2 h, 3 μM [1] [×10⁻⁶ cm/s]",SMILES
0.578,–,–,"CC(C)Nc1cc(-c2cnn3cc(C#N)cnc23)ncc1-n1cc(C(C)(C)O)cn1 [Example 1, 3-(5-(4-(2-hydroxypropan-2-yl)-1H-pyrazol-1-yl)-4-(isopropylamino)pyridin-2-yl) pyrazolo[1,5-a]pyrimidine-6-carbonitrile]"
0.014,1.03,–,"CC(C)Nc1cc(-c2cnc3cc(C#N)cnn23)ncc1-c1cnn(C2CCOCC2)c1 [Example 3, 3-(4-(isopropylamino)-5-(1-(tetrahydro-2H-pyran-4-yl)-1H-pyrazol-4-yl)pyridin-2-yl)imidazo[1,2-b]pyridazine-7-carbonitrile]"
0.396,–,–,"CC(C)Nc1cc(-c2cnc3cc(Cl)cnn23)ncc1-c1cnn(CC(C)(C)O)c1 [Example 4, 1-(4-(6-(7-chloroimidazo[1,2-b]pyridazin-3-yl)-4-(isopropylamino)pyridin-3-yl)-1H-pyrazol-1-yl)-2-methylpropan-2-ol]"
0.174,–,–,"CC(C)Nc1cc(-c2cnc3cc(C#N)cnn23)ncc1-c1cnn(CC(C)(C)O)c1 [Example 5, 3-(5-(1-(2-hydroxy-2-methylpropyl)-1H-pyrazol-4-yl)-4-(isopropylamino)pyridin-2-yl)imidazo[1,2-b]pyridazine-7-carbonitrile]"
0.018,4.41,–,"CCCn1cc(-c2cnc(-c3cnc4cc(C#N)cnn34)cc2NC(C)C)cn1 [Example 6, 3-(4-(isopropylamino)-5-(1-propyl-1H-pyrazol-4-yl)pyridin-2-yl)imidazo[1,2-b]pyridazine-7-carbonitrile]"
0.053,–,–,"CC(C)Nc1cc(-c2cnc3cc(Cl)cnn23)ncc1-c1cnn(CC(F)(F)F)c1 [Example 7, 2-(7-chloroimidazo[1,2-b]pyridazin-3-yl)-N-isopropyl-5-(1-(2,2,2-trifluoroethyl)-1H-pyrazol-4-yl)pyridin-4-amine]"
0.043,–,–,"CC(C)Nc1cc(-c2cnc3cc(C#N)cnn23)ncc1-c1cnn(CC(F)(F)F)c1 [Example 8, 3-(4-(isopropylamino)-5-(1-(2,2,2-trifluoroethyl)-1H-pyrazol-4-yl)pyridin-2-yl)imidazo[1,2-b]pyridazine-7-carbonitrile]"
0.029,–,–,"CCCn1cc(-c2cnc(-c3cnc4cc(Cl)cnn34)cc2Nc2cnn(CC(F)F)c2)cn1 [Example 9, 2-(7-chloroimidazo[1,2-b]pyridazin-3-yl)-N-(1-(2,2-difluoroethyl)-1H-pyrazol-4-yl)-5-(1-propyl-1H-pyrazol-4-yl)pyridin-4-amine]"
0.02,–,–,"CCCn1cc(-c2cnc(-c3cnc4cc(C#N)cnn34)cc2Nc2cnn(CC(F)F)c2)cn1 [Example 10, 3-(4-((1-(2,2-difluoroethyl)-1H-pyrazol-4-yl)amino)-5-(1-propyl-1H-pyrazol-4-yl)pyridin-2-yl)imidazo[1,2-b]pyridazine-7-carbonitrile]"
0.008,–,17.9,"CCCc1cn(-c2cnc(-c3cnn4cc(Cl)cnc34)cc2NC(C)C)nn1 [Example 11, 2-(6-chloropyrazolo[1,5-a]pyrimidin-3-yl)-N-isopropyl-5-(4-propyl-1H-1,2,3-triazol-1-yl)pyridin-4-amine]"
0.009,–,34.7,"CCCc1cn(-c2cnc(-c3cnn4cc(C#N)cnc34)cc2NC(C)C)nn1 [Example 12, 3-(4-(isopropylamino)-5-(4-propyl-1H-1,2,3-triazol-1-yl)pyridin-2-yl)pyrazolo[1,5-a]pyrimidine-6-carbonitrile]"
0.003,0.95,–,"CC(C)Nc1cc(-c2cnn3cc(Cl)cnc23)ncc1-n1cc(CCC(C)(C)O)nn1 [Example 13, 4-(1-(6-(6-chloropyrazolo[1,5-a]pyrimidin-3-yl)-4-(isopropylamino)pyridin-3-yl)-H-1,2,3-triazol-4-yl)-2-methylbutan-2-ol]"
0.009,0.82,–,"CC(C)(O)CCc1cn(-c2cnc(-c3cnn4cc(Cl)cnc34)cc2NC2COC2)nn1 [Example 14, 4-(1-(6-(6-chloropyrazolo[1,5-a]pyrimidin-3-yl)-4-(oxetan-3-ylamino)pyridin-3-yl)-1H-1,2,3-triazol-4-yl)-2-methylbutan-2-ol]"
0.002,–,–,"CC(C)Nc1cc(-c2cnc3cc(C#N)cnn23)ncc1-c1cn(C2CCOCC2)nn1 [Example 16, 3-(4-(isopropylamino)-5-(1-(tetrahydro-2H-pyran-4-yl)-1H-1,2,3-triazol-4-yl)pyridin-2-yl)imidazo[1,2-b]pyridazine-7-carbonitrile]"
0.002,–,–,"CC(=O)N1CC(n2cc(-c3cnc(-c4cnc5cc(C#N)cnn45)cc3NC(C)C)nn2)C1 [Example 17, 3-(5-(1-(1-acetylazetidin-3-yl)-1H-1,2,3-triazol-4-yl)-4-(isopropylamino)pyridin-2-yl)imidazo[1,2-b]pyridazine-7-carbonitrile]"
0.003,2.32,–,"CCCn1cc(-c2cnc(-c3cnc4cc(Cl)cnn34)cc2NC2CC2)nn1 [Example 19, 2-(7-chloroimidazo[1,2-b]pyridazin-3-yl)-N-cyclopropyl-5-(1-propyl-1H-1,2,3-triazol-4-yl)pyridin-4-amine]"
0.012,–,–,"CCCn1cc(-c2cnc(-c3cnc4cc(Cl)cnn34)cc2NC(C)C)nn1 [Example 20, 2-(7-chloroimidazo[1,2-b]pyridazin-3-yl)-N-isopropyl-5-(1-propyl-1H-1,2,3-triazol-4-yl)pyridin-4-amine]"
0.014,2.87,–,"COC(=O)N1CCC(n2cc(-c3cnc(-c4cnc5cc(Cl)cnn45)cc3NC3CC3)nn2)[C@](C)(O)C1 (stereo partly drawn) [Example 21, (3R)-methyl 4-(4-(6-(7-chloroimidazo[1,2-b]pyridazin-3-yl)-4-(cyclopropylamino)pyridin-3-yl)-1H-1,2,3-triazol-1-yl)-3-hydroxy-3-methylpiperidine-1-carboxylate]"
0.009,0.99,–,"CC(C)(O)CCc1cn(-c2cnc(-c3cnn4cc(Cl)cnc34)cc2NC2CCOCC2)nn1 [Example 23, 4-(1-(6-(6-chloropyrazolo[1,5-a]pyrimidin-3-yl)-4-((tetrahydro-2H-pyran-4-yl)amino)pyridin-3-yl)-1H-1,2,3-triazol-4-yl)-2-methylbutan-2-ol]"
0.014,0.78,–,"CC(C)(O)CCc1cn(-c2cnc(-c3cnn4cc(C#N)cnc34)cc2NC2CC(F)(F)C2)nn1 [Example 24, 3-(4-((3,3-difluorocyclobutyl)amino)-5-(4-(3-hydroxy-3-methylbutyl)-1H-1,2,3-triazol-1-yl)pyridin-2-yl)pyrazolo[1,5-a]pyrimidine-6-carbonitrile]"
–,0.16,–,"CC(C)(O)CCc1cn(-c2cnc(-c3cnn4cc(C#N)cnc34)cc2NC2COC2)nn1 [Example 26, 3-(5-(4-(3-hydroxy-3-methylbutyl)-1H-1,2,3-triazol-1-yl)-4-(oxetan-3-ylamino)pyridin-2-yl)pyrazolo[1,5-a]pyrimidine-6-carbonitrile]"
0.005,0.59,–,"CC(C)Nc1cc(-c2cnc3cc(C#N)cnn23)ncc1-c1cc(C2CCOCC2)[nH]n1 [Example 28, 3-(4-(isopropylamino)-5-(5-(tetrahydro-2H-pyran-4-yl)-1H-pyrazol-3-yl)pyridin-2-yl)imidazo[1,2-b]pyridazine-7-carbonitrile]"
0.002,0.51,–,"CC(C)(O)CCc1cc(-c2cnc(-c3cnn4cc(C#N)cnc34)cc2NC2CCOCC2)n[nH]1 [Example 29, 3-(5-(5-(3-hydroxy-3-methylbutyl)-1H-pyrazol-3-yl)-4-((tetrahydro-2H-pyran-4-yl)amino)pyridin-2-yl)pyrazolo[1,5-a]pyrimidine-6-carbonitrile]"
